Patent US7892350B2, “Sacrificial agents for fly ash concrete” (Boral Material Technologies Inc., priority 2003, dated 2011)

Legend:
[1] = Adsorption/precipitation of SA or AEA in 10 wt % aqueous fly ash or cement slurries at pH 12.5; assay type: physicochemical; details: initial SA 3 mM
Method: Adsorption/Precipitation of Sacrificial Agents (SA) or Air Entrainment Agents (AEA) in 10 wt % Aqueous Fly Ash Slurries at pH 12.5:
(§1) The pH of the solutions were adjusted to 12.5 with NaOH.
Adsorption/Precipitation in FA or Cement Slurries: In this protocol, aqueous slurries containing 10 wt % FA or cement were prepared as described above, except that in this case, the cement was added directly into a solution of the SA or AEA in the following proportions: 3.0 g cement or FA, and 27 g of 3 mM sacrificial agent, or 27 g of 1050 mg/l AEA; the latter were prepared in the same way as in the precipitation test above. The residual (soluble) SA or AEA content in the solution was also determined by UV or COD.

[2] = Precipitation in slurry extract or leachate; assay type: physicochemical; details: pH 12.5, entries in parentheses
Method: as §1
Precipitation in slurry extract or leachate: To perform this test, FA or cement leachate were prepared in advance, by filtering two liters of a 10 wt % FA, or cement, slurry in 0.03N NaOH which had been left to stand under slow agitation for 30 min; 2.5 g of the filtrate solution was mixed with 22.5 g of the SA or AEA solution in a 50 ml polypropylene centrifuge tube; the latter was shaken vigorously in an orbital shaker (Eberbach Corporation) for 30 min at room temperature, centrifuged for 5 min and then the supernatant solution was filtered (0.45 μm). The SA or AEA content of the solution was determined using an Ultraviolet-Visible (UV) spectrometer or by COD (Chemical Oxygen Demand) measurement.
Entries in parentheses: % precipitation when reacted with solutions extracted from the fly ash slurries (Results in Table 5).

[3] = Paste air entrainment, Minimum air protocol; details: for Average of air entrained: over the fly ash:PCA pastes of Table 7
Method: Preparation of pastes: Pastes were prepared by pouring 400 g of cementitious powder in the 350-400 g of solution (water and additives) in a vessel (8.4 cm dia,×14.5 cm height) while gently stirring with a spatula; the exact quantity of water depends on the selected W/B ratio (see below); rapid hand mixing was continued for 1 minute, followed by intense stirring at 25° C. during 2 min using a hand-held mixer (BRAUN model MR400). The level of air entrained is dependent on the mode of utilisation of the mixer, namely the height of the mixer from the bottom of the vessel and the length of the mixing stroke; the following protocols were adopted.
Minimum air protocol: The BRAUN mixer is positioned at 1.0 inch from the bottom of the mixing vessel and the up-down motion of the mixer is limited to a 1.0 inch displacement; this provided ‘minimum air’ entrained air levels and is later referred to as ‘Minimum air protocol’ (Results reported in Table 6, col. 1 and Table 7).
Fluidity measurements: For all air entrainment measurements, the initial fluidity of the paste (without additives) was controlled using the ‘mini-slump’ procedure widely used for paste and grouts. In this protocol, a portion of the paste was transferred into the min-slump cone (a 2¼″ high, 1½″ bottom diameter, ¾″ top diameter cone); excess paste was skimmed-off with a straight; the cone was then raised and the spread diameter of the paste was recorded (average of two measurements). The fluidity is measured at 10 minutes after mixing. The paste is returned to the batch and reserved for subsequent AE measurements. The fluidity of the paste (without SA and AEA) is adjusted by changing the amount of water (water/cementitious ratio) which yields a spread diameter of 115±5 mm. The latter is monitored regularly.
Air entrainment measurements: For air entrainment measurements, a portion of the paste was transferred to overfill a Plexiglas cylinder (3¾ inches height, 2 inches interior diameter), which was then levelled flush to the top of the cylinder with a straight edge. The mass of the filled cylinder, minus the weight of the empty cylinder, is then recorded and used to calculate the amount of air according to the following formula: […]
This procedure was carried out at three times at 30 min. intervals (6, 36 and 66 min); the paste was let to stand at rest between measurements, and was stirred gently by hand for one minute prior to the subsequent air entrainment measurements.
Typical mixture compositions for air entrainment measurements in pastes containing a single additive using ‘Minimum air protocol’ (results shown in Table 6, col. 1): […]

[4] = Paste air entrainment, Maximum air protocol; details: for Air entrained at 66 min: Air 30 (0.0125 wt %)/X/ButOH=1/4/4, X = the labelled sulfonated SA; for Air entrained: PCA cement paste, 0.0125% SA or AEA alone, Maximum air protocol
Method in brief: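 Pastes of 400 g cementitious powder in water plus additives, hand-mixed 1 min then mixer-stirred 2 min at 25 °C; water/binder ratio set so additive-free paste gives 115±5 mm mini-slump spread at 10 min. Air content calculated from mass of paste filling a fixed-volume cylinder at 6, 36 and 66 min, paste at rest between readings and hand-stirred 1 min beforehand.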

[5] = 10 wt % fly ash B1 (LOI 4.36%) slurry, Air 30/Air 40 0.105 wt %
[6] = 10 wt % fly ash C1, class C (LOI 1.62%) slurry, Air 30/Air 40 0.105 wt %
[7] = 10 wt % fly ash C2 (LOI 3.32%) slurry
[8] = 10 wt % fly ash M1 (LOI […]) slurry, Air 30/Air 40 0.105 wt %
[9] = 10 wt % fly ash M2 (LOI 5.34%) slurry, Air 30/Air 40 0.105 wt %
[10] = 10 wt % fly ash M3 (LOI 11.33%) slurry, Air 30/Air 40 0.105 wt %
[11] = 10 wt % fly ash N (LOI 0.30%) slurry
[12] = solution extracted from 10 wt % fly ash B1 (LOI 4.36%) slurry
[13] = solution extracted from 10 wt % fly ash C1, class C (LOI 1.62%) slurry
[14] = solution extracted from 10 wt % fly ash C2 (LOI 3.32%) slurry
[15] = solution extracted from 10 wt % fly ash M1 (LOI […]) slurry
[16] = solution extracted from 10 wt % fly ash M2 (LOI 5.34%) slurry
[17] = solution extracted from 10 wt % fly ash M3 (LOI 11.33%) slurry
[18] = solution extracted from 10 wt % fly ash N (LOI 0.30%) slurry
[19] = 50:50 fly ash B1 (LOI 4.36%):PCA paste, 0.1 wt % Air 30 alone or with 0.05 wt % of the SA
[20] = 50:50 fly ash C1 (LOI 1.62%):PCA paste, 0.1 wt % Air 30 alone or with 0.05 wt % of the SA
[21] = 50:50 fly ash D (LOI […]):PCA paste, 0.1 wt % Air 30 alone or with 0.05 wt % of the SA
[22] = 50:50 fly ash M1 (LOI […]):PCA paste, 0.1 wt % Air 30 alone or with 0.05 wt % of the SA
[23] = 50:50 fly ash M2 (LOI 5.34%):PCA paste, 0.1 wt % Air 30 alone or with 0.05 wt % of the SA
[24] = 50:50 fly ash M3 (LOI 11.33%):PCA paste, 0.1 wt % Air 30 alone or with 0.05 wt % of the SA
[25] = 50:50 fly ash R (LOI […]):PCA paste, 0.1 wt % Air 30 alone or with 0.05 wt % of the SA
[26] = PCA cement paste, 0.1% SA or AEA alone, Minimum air protocol
[27] = 0.1 wt % Air 30 alone or with 0.05 wt % of the SA
[28] = 50:50 fly ash B1 (LOI 4.36%):PCA paste
[29] = 50:50 fly ash D (LOI […]):PCA paste
[30] = 50:50 fly ash M2 (LOI 5.34%):PCA paste

Compound | Adsorption (wt % Adsorbed) [1, 5] [wt %] | Adsorption (wt % Adsorbed) [1, 6] [wt %] | Adsorption (wt % Adsorbed) [1, 7] [wt %] | Adsorption (wt % Adsorbed) [1, 8] [wt %] | Adsorption (wt % Adsorbed) [1, 9] [wt %] | Adsorption (wt % Adsorbed) [1, 10] [wt %] | Adsorption (wt % Adsorbed) [1, 11] [wt %] | Precipitation (wt % precipitated) [2, 12] [wt %] | Precipitation (wt % precipitated) [2, 13] [wt %] | Precipitation (wt % precipitated) [2, 14] [wt %] | Precipitation (wt % precipitated) [2, 15] [wt %] | Precipitation (wt % precipitated) [2, 16] [wt %] | Precipitation (wt % precipitated) [2, 17] [wt %] | Precipitation (wt % precipitated) [2, 18] [wt %] | Air entrained [3, 19] [vol %] | Air entrained [3, 20] [vol %] | Air entrained [3, 21] [vol %] | Air entrained [3, 22] [vol %] | Air entrained [3, 23] [vol %] | Air entrained [3, 24] [vol %] | also measured
O=S(=O)([O-])c1ccc2ccccc2c1.[Na+] [NS, Sodium 2-Naphthalene sulfonate] | 8 | 70 | 5 | 11 | 8 | 10 | 5 | 0 | 10 | 0 | 0 | 0 | 0 | 0 | 4 | 12 | 6 | 4 | 3 | 4 | Adsorption (wt % Adsorbed) ([1]; 10 wt % PCA cement slurry, Air 30/Air 40 0.105 wt %): 3 wt %; Adsorption (wt % Adsorbed) ([1]; 10 wt % fly ash D, class C (LOI […]) slurry, Air 30/Air 40 0.105 wt %): 59 wt %; Adsorption (wt % Adsorbed) ([1]; 10 wt % fly ash R (LOI […]) slurry, Air 30/Air 40 0.105 wt %): 24 wt %; Precipitation (wt % precipitated) ([2]; solution extracted from 10 wt % PCA cement slurry): 1 wt %; Precipitation (wt % precipitated) ([2]; solution extracted from 10 wt % fly ash D, class C (LOI […]) slurry): 1 wt %; Precipitation (wt % precipitated) ([2]; solution extracted from 10 wt % fly ash R (LOI […]) slurry): 0 wt %; Air entrained [3, 25]: 6 vol %; Air entrained [3, 26]: 0 vol %; Average of air entrained [3, 27]: 5%; Air entrained at 66 min [4, 28]: 7 vol %; Air entrained at 66 min [4, 29]: 18 vol %; Air entrained at 66 min [4, 30]: 5 vol %; Air entrained [4]: 2 vol %; Air entrained at 66 min ([4]; PCA paste, no fly ash): 13 vol %
Sodium Di-isopropopyl naphthalene sulfonate [ND] | 14 | 84 | 17 | 27 | 13 | 18 | 26 | 0 | 31 | 0 | 0 | 0 | 0 | 0 | 4 | 4 | 3 | 5 | 4 | 4 | Air entrained [3, 25]: 3 vol %; Air entrained [3, 26]: 3 vol %; Average of air entrained [3, 27]: 4%; Air entrained at 66 min [4, 28]: 17 vol %; Air entrained at 66 min [4, 29]: 24 vol %; Air entrained at 66 min [4, 30]: 11 vol %; Air entrained [4]: 7 vol %; Air entrained at 66 min ([4]; PCA paste, no fly ash): 23 vol %; air entrained (average) ([4]; fly ash:cement pastes, SA added at four (4) times the fixed Air 30 dosage (0.0125%)): 14%
